{"source": "patent US20250276069A1", "about": "“HETEROBIFUNCTIONAL COMPOSITIONS FOR TARGETED PROTEIN DEGRADATION AND METHODS FOR THEIR USE” (THE SCRIPPS RESEARCH INSTITUTE, priority 2021, published 2025)", "note": "“Also recorded” adds a separate entry of the source."}
{"system": "HCC1806 cells", "assay": "TMT MS quantitative proteomics of live cells treated with FragTAC probes (HCC1806)", "assay_type": "cell-based, Homo Sapiens", "conditions": "TMT proteomics; targets with 2 unique peptides or more and depleted 2-fold or more relative to DMSO control (P value <0.05); cell line not given", "description": "(§1) Mammalian cell culture: MDA-MB-231 cells (ATCC) were maintained in DMEM supplemented with 10% (v/v) fetal bovine serum (FBS), 1% (v/v) penicillin/streptomycin, and 2 mM glutamine. HCC1806 cells (ATCC) were maintained in RPMI supplemented with 10% (v/v) fetal bovine serum (FBS), 1% (v/v) penicillin/streptomycin, and 2 mM glutamine. All cell lines were grown at 37° C. in a humidified 5% CO2 atmosphere.\n(§2) Treatment of Live Cells with FragTAC Probes: Separate 6 cm (for gel-based analyses) or 10 cm (for MS-based analyses) dishes of MDA-MB-231 cells or HCC1806 cells were grown to 80-95% confluency with DMEM media and RPMI media respectively. The growth medium was aspirated, and the cells were washed with Dulbecco's phosphate buffered saline (DPBS). The cells were incubated with serum-free media containing fragment probes (200 μM) or control probes (200 μM) for 6 hours at 37° C. under a 5% CO2 atmosphere. The cultures were scraped, washed with cold DPBS, and collected into 15 mL centrifuge tubes, then transferred to 1.5 mL Eppendorf tubes. The cell suspensions were centrifuged (1,400 g, 3 min) and the pellets were stored at −80° C. until the next stage of processing.\n(§3) Sample preparation for TMT MS Quantitative Proteomics: For treatment of cell lysates, cells were collected, cell pellets were resuspended in 100 μL DPBS containing 1× Halt protease inhibitor cocktail, and lysed by sonication (15 ms on, 40 ms off, 15% amplitude, 1 s total). Protein concentrations were normalized (2 mg/mL in 100 μL with cold DPBS) using the Lowry Protein Assay (Pierce). Urea (48 mg) was weighed for each sample in 2 mL LoBind Eppendorf tubes and cell lysates (100 μL=200 μg) were added (final urea concentration=8 M). Pellets were resuspended in a freshly prepared 1:1 solution (50 μL) TCEP (200 mM in DPBS) and K2CO3 (600 mM in DPBS) and incubated (30 min, 37° C.) while shaking. After reaction, a solution of freshly prepared iodoacetamide (70 μL, 400 mM in DPBS) was added and incubated for 30 min at room temperature while protected from light. After reaction, 1.8 mL of cold 3:1:2 MeOH/CHCl3/H2O solution was added to each tube, and the samples were centrifuged (10,000×g, 10 min, 4° C.), forming a disc. The supernatant was carefully removed, MeOH (600 μL) was added, samples were centrifuged as previously described and the supernatant was removed. Cell pellets were resuspended in TEAB (160 μL, 100 mM, pH 8.5) and sonicated as described previously. Endoproteinase LysC (20 μL, ½ vial, 10 μg dissolved in 220 μL of 100 mM TEAB pH 8.5) was added to each and incubated at 37° C. for 2 h with shaking. Sequencing-grade modified porcine trypsin (20 μL, 1 vial, 20 μg dissolved in 220 μL of 100 mM TEAB pH 8.5), a solution of Protease Max (2 μL, 1% (w/v) in 100 mM TEAB pH 8.5) and a solution of CaCl2) (2 μL, 100 mM) were added to the samples and incubated at 37° C. overnight (14 h) with shaking. The digest was separated by centrifugation (12,000×g, 10 min, 4° C.). Peptide concentration was determined using Pierce Quantitative Fluorometric Peptide Assay Kit (Thermo Fisher Scientific, 23290) according to manufacturer's instructions. MS-grade acetonitrile (12.5 μL) was added to each and samples were labeled with respective TMT 10 plex isotope (8 μL, 20 μg/μL) for 1 h with occasional vortexing at RT. To quench, hydroxylamine (3 μL, 5% v/v) was added to each sample, vortexed, and incubated for 15 min at RT. Formic acid (5 μL) was added to each tube to acidify and the samples were dried under vacuum centrifugation. The samples were combined by redissolving the contents of one tube in a solution of trifluoroacetic acid (TFA, 400 μL, 0.1% in water) and transferred into each sample until all samples were redissolved. The stepwise process was repeated with formic acid (Buffer A, 200 μL, 0.1% in water) for a final volume of 600 μL. […]"}
{"compound": "Cc1ncsc1-c1ccc(CNC(=O)[C@@H]2C[C@@H](O)CN2C(=O)[C@@H](NC(=O)CCOCCOCCOCCC(=O)N2CCCC2c2noc(Cc3ccc(Br)cc3)n2)C(C)(C)C)cc1", "note": "(stereo partly drawn) [IF-064, (2S,4R)-1-((2S)-16-(2-(5-(4-bromobenzyl)-1,2,4-oxadiazol-3-yl)pyrrolidin-1-yl)-2-(tert-butyl)-4,16-dioxo-7,10,13-trioxa-3-azahexadecanoyl)-4-hydroxy-N-(4-(4-methylthiazol-5-yl)benzyl)pyrrolidine-2-carboxamide]", "Downregulated proteins targeted by FragTAC probes (protein listed for the probe code)": "GHITM"}
{"compound": "Cc1ncsc1-c1ccc(CNC(=O)[C@@H]2C[C@@H](O)CN2C(=O)[C@@H](NC(=O)CCOCCOCCOCCC(=O)NC2=NC(c3ccccc3)c3ccccc3NC2=O)C(C)(C)C)cc1", "note": "(stereo partly drawn) [IF-065, (2S,4R)-1-((2S)-2-(tert-butyl)-4,16-dioxo-16-((2-oxo-5-phenyl-2,5-dihydro-1H-benzo[e][1,4]diazepin-3-yl)amino)-7,10,13-trioxa-3-azahexadecanoyl)-4-hydroxy-N-(4-(4-methylthiazol-5-yl)benzyl)pyrrolidine-2-carboxamide]", "Downregulated proteins targeted by FragTAC probes (protein listed for the probe code)": "BRD2"}
{"compound": "Cc1ncsc1-c1ccc(CNC(=O)[C@@H]2C[C@@H](O)CN2C(=O)[C@@H](NC(=O)CCOCCOCCOCCC(=O)N2CCN(CC3=C(c4ccc(Cl)cc4)CC(C)(C)CC3)CC2)C(C)(C)C)cc1", "note": "[IF-060, (2S,4R)-1-((S)-2-(tert-butyl)-16-(4-((4′-chloro-5,5-dimethyl-3,4,5,6-tetrahydro-[1,1′-biphenyl]-2-yl)methyl)piperazin-1-yl)-4,16-dioxo-7,10,13-trioxa-3-azahexadecanoyl)-4-hydroxy-N-(4-(4-methylthiazol-5-yl)benzyl)pyrrolidine-2-carboxamide]", "Downregulated proteins targeted by FragTAC probes (protein listed for the probe code)": "GHITM"}
{"compound": "Cc1ncsc1-c1ccc(CNC(=O)[C@@H]2C[C@@H](O)CN2C(=O)[C@@H](NC(=O)CCOCCOCCC(=O)NCCc2ccc3c(c2)NC(=O)CCC3)C(C)(C)C)cc1", "note": "[LPC034, (2S,4R)-1-((S)-2-(tert-butyl)-4,13-dioxo-16-(2-oxo-2,3,4,5-tetrahydro-1H-benzo[b]azepin-8-yl)-7,10-dioxa-3,14-diazahexadecanoyl)-4-hydroxy-N-(4-(4-methylthiazol-5-yl)benzyl)pyrrolidine-2-carboxamide]", "Downregulated proteins targeted by FragTAC probes (protein listed for the probe code)": "KRT10 and KRT2"}
{"compound": "Cc1ncsc1-c1ccc(CNC(=O)[C@@H]2C[C@@H](O)CN2C(=O)[C@@H](NC(=O)CCOCCOCCOCCNC(=O)c2[nH]c3ccc(Cl)cc3c2-c2ccccc2)C(C)(C)C)cc1", "note": "[IF-073, 5-chloro-N-((S)-14-((2S,4R)-4-hydroxy-2-((4-(4-methylthiazol-5-yl)benzyl)carbamoyl)pyrrolidine-1-carbonyl)-15,15-dimethyl-12-oxo-3,6,9-trioxa-13-azahexadecyl)-3-phenyl-1H-indole-2-carboxamide]", "Downregulated proteins targeted by FragTAC probes (protein listed for the probe code)": "CYP1B1 and FAM177A1 and GHITM and LGMN"}
{"compound": "CCn1c2ccccc2c2ccc(CN(C(=O)CCOCCOCCOCCC(=O)N[C@H](C(=O)N3C[C@H](O)C[C@H]3C(=O)NCc3ccc(-c4scnc4C)cc3)C(C)(C)C)C3CCCC3)cc21", "note": "[IF-062, (2S,4R)-1-((S)-17-(tert-butyl)-2-cyclopentyl-1-(9-ethyl-9H-carbazol-2-yl)-3,15-dioxo-6,9,12-trioxa-2,16-diazaoctadecan-18-oyl)-4-hydroxy-N-(4-(4-methylthiazol-5-yl)benzyl)pyrrolidine-2-carboxamide]", "Downregulated proteins targeted by FragTAC probes (protein listed for the probe code)": "GHITM"}
{"system": "HCC1806 cells", "assay": "TMT MS quantitative proteomics of live cells treated with FragTAC probes (HCC1806)", "assay_type": "cell-based, Homo Sapiens", "conditions": "TMT proteomics; targets with 2 unique peptides or more and depleted 2-fold or more relative to DMSO control (P value <0.05); value = downregulated protein", "description": "as §1, §2, §3"}
{"compound": "Cc1ncsc1-c1ccc(CNC(=O)[C@@H]2C[C@@H](O)CN2C(=O)[C@@H](NC(=O)CCOCCOCCOCCC(=O)NC2=NC(c3ccccc3)c3ccccc3NC2=O)C(C)(C)C)cc1", "note": "(stereo partly drawn) [IF-065, (2S,4R)-1-((2S)-2-(tert-butyl)-4,16-dioxo-16-((2-oxo-5-phenyl-2,5-dihydro-1H-benzo[e][1,4]diazepin-3-yl)amino)-7,10,13-trioxa-3-azahexadecanoyl)-4-hydroxy-N-(4-(4-methylthiazol-5-yl)benzyl)pyrrolidine-2-carboxamide]", "Proteins targeted (downregulated) by FragTAC probe": "TMBIM6"}
{"compound": "Cc1ncsc1-c1ccc(CNC(=O)[C@@H]2C[C@@H](O)CN2C(=O)[C@@H](NC(=O)CCOCCOCCOCCNC(=O)c2[nH]c3ccc(Cl)cc3c2-c2ccccc2)C(C)(C)C)cc1", "note": "[IF-073, 5-chloro-N-((S)-14-((2S,4R)-4-hydroxy-2-((4-(4-methylthiazol-5-yl)benzyl)carbamoyl)pyrrolidine-1-carbonyl)-15,15-dimethyl-12-oxo-3,6,9-trioxa-13-azahexadecyl)-3-phenyl-1H-indole-2-carboxamide]", "Proteins targeted (downregulated) by FragTAC probe": "NPC2 and PCLAF and RPLP1 and SETX and TXNIP"}
{"compound": "Cc1ncsc1-c1ccc(CNC(=O)[C@@H]2C[C@@H](O)CN2C(=O)[C@@H](NC(=O)CCOCCOCCC(=O)N[C@H]2CCCc3ccccc32)C(C)(C)C)cc1", "note": "[LPC049, (2S,4R)-1-((S)-3,3-dimethyl-2-(3-(2-(3-oxo-3-(((S)-1,2,3,4-tetrahydronaphthalen-1-yl)amino)propoxy)ethoxy)propanamido)butanoyl)-4-hydroxy-N-(4-(4-methylthiazol-5-yl)benzyl)pyrrolidine-2-carboxamide]", "Proteins targeted (downregulated) by FragTAC probe": "TMBIM6; also recorded: TOR4A"}
{"system": "HCC1806 cells", "assay": "TMT MS quantitative proteomics of live cells treated with FragTAC probes (HCC1806)", "assay_type": "cell-based, Homo Sapiens", "conditions": "protein with 2 unique peptides or more, depleted 2-fold or more relative to DMSO control (P value <0.05); value = downregulated protein", "description": "as §1, §2, §3"}
{"compound": "Cc1ncsc1-c1ccc(CNC(=O)[C@@H]2C[C@@H](O)CN2C(=O)[C@@H](NC(=O)CCOCCOCCC(=O)NCCC(c2ccccc2)c2ccccc2)C(C)(C)C)cc1", "note": "[LPC022, (2S,4R)-1-((S)-2-(tert-butyl)-4,13-dioxo-17,17-diphenyl-7,10-dioxa-3,14-diazaheptadecanoyl)-4-hydroxy-N-(4-(4-methylthiazol-5-yl)benzyl)pyrrolidine-2-carboxamide]", "Proteins targeted (downregulated) by FragTAC probe": "ZFR and ZMYM4"}
{"compound": "Cc1ncsc1-c1ccc(CNC(=O)[C@@H]2C[C@@H](O)CN2C(=O)[C@@H](NC(=O)CCOCCOCCC(=O)N2CCN(C(c3ccccc3)c3ccccc3)CC2)C(C)(C)C)cc1", "note": "[LPC020, (2S,4R)-1-((S)-2-(3-(2-(3-(4-benzhydrylpiperazin-1-yl)-3-oxopropoxy)ethoxy)propanamido)-3,3-dimethylbutanoyl)-4-hydroxy-N-(4-(4-methylthiazol-5-yl)benzyl)pyrrolidine-2-carboxamide]", "Proteins targeted (downregulated) by FragTAC probe": "YIPF3 and ZC3H13 and ZC3HC1 and ZFR and ZMYM4 and ZNF638 and ZNF830"}
{"compound": "Cc1ncsc1-c1ccc(CNC(=O)[C@@H]2C[C@@H](O)CN2C(=O)[C@@H](NC(=O)CCOCCC(=O)N2CCN(C(c3ccccc3)c3ccccc3)CC2)C(C)(C)C)cc1", "note": "[IF-049, (2S,4R)-1-((S)-2-(3-(3-(4-benzhydrylpiperazin-1-yl)-3-oxopropoxy)propanamido)-3,3-dimethylbutanoyl)-4-hydroxy-N-(4-(4-methylthiazol-5-yl)benzyl)pyrrolidine-2-carboxamide]", "Proteins targeted (downregulated) by FragTAC probe": "YIPF3; also recorded: YLPM1; also recorded: ZNF185"}
{"compound": "Cc1ncsc1-c1ccc(CNC(=O)[C@@H]2C[C@@H](O)CN2C(=O)[C@@H](NC(=O)CCOCCOCCOCCC(=O)N2CCN(C(c3ccccc3)c3ccccc3)C[C@@H]2c2ccccc2)C(C)(C)C)cc1", "note": "[CMC-6-123, (2S,4R)-1-((S)-16-((S)-4-benzhydryl-2-phenylpiperazin-1-yl)-2-(tert-butyl)-4,16-dioxo-7,10,13-trioxa-3-azahexadecanoyl)-4-hydroxy-N-(4-(4-methylthiazol-5-yl)benzyl)pyrrolidine-2-carboxamide]", "Proteins targeted (downregulated) by FragTAC probe": "ZBTB1; also recorded: ZNF217"}
{"compound": "Cc1ncsc1-c1ccc(CNC(=O)[C@@H]2C[C@@H](O)CN2C(=O)[C@@H](NC(=O)CCOCCOCCOCCNC(=O)CCc2nc(-c3ccccc3)c(-c3ccccc3)o2)C(C)(C)C)cc1", "note": "[IF-072, (2S,4R)-1-((S)-2-(tert-butyl)-19-(4,5-diphenyloxazol-2-yl)-4,17-dioxo-7,10,13-trioxa-3,16-diazanonadecanoyl)-4-hydroxy-N-(4-(4-methylthiazol-5-yl)benzyl)pyrrolidine-2-carboxamide]", "Proteins targeted (downregulated) by FragTAC probe": "ZC3H14; also recorded: ZNF800"}
